In patent US20080242635A1, “Method for Lengthening the Seasonal Mobility Period of Fish” (priority 2005, published 2008):

How the values were obtained:
fish = assay: Lengthening the seasonal mobility period of fish by feed supplements; format: in vivo; settings: for Lengthening of the seasonal mobility period of fish (in words): feed supplement
koi fish = assay: Pond test: fish feed to lengthen the period of seasonal mobility of koi (Example 5); format: in vivo; settings: relative index 1 to 5 (1 fully immobile, 5 fully mobile), 10 gram feed per day, additive per Table 1
Text: Four ponds of 40 cubic meters each, all contained 50 koi fish with an approximate total body weight of 50 kg were used to show effectiveness of the fish feed according to the invention. One pond served as a control were the fish were fed with control feed, the fish in the other ponds received a feed according to the invention as prepared in examples 2 to 4 above. The experiment started when the temperature of the water was about 2 degrees Celsius.
The fish in control pond were fed with 10 gram Cyprico White 3 mm floater feed per day, whereas the fish in the other pond were fed with 10 gram of the feeds as described in Example 2, 3 and 4 Table 1).
This effect increased gradually every day until after 5 days the fish were fully mobile, whereas the temperature of the water was still between 2 and 3 degrees Celsius. Mobility of the fish was scored on a relative index of 1 to 5 wherein 1 is fully immobile and 5 is fully mobile Table 2). The water in the control pond was at exactly the same temperature as that of the other ponds, however the fish in the control pond were completely immobile. […] The fish were healthy and fully mobile whereas the control group was almost fully immobile.
Fish in ponds 1, 2 and 3 were fed with fish feed according to the invention, fish in pond 4 received control feed. Further details are described in the examples.

Molecule | Lengthening of the seasonal mobility period of fish (in words) (fish) | Daily intake, optimum of cost benefit (fish; in vivo) | Mobility (koi fish; day 1, water 2 degrees Celsius) | Mobility (koi fish; day 2, water 2 degrees Celsius) | Mobility (koi fish; day 3, water 3 degrees Celsius) | Mobility (koi fish; day 4, water 3 degrees Celsius) | Mobility (koi fish; day 5, water 3 degrees Celsius) | Mobility (koi fish; day 8, water 3 degrees Celsius) | Mobility (koi fish; day 12, water 3 degrees Celsius) | Mobility (koi fish; day 16, water 4 degrees Celsius) | Mobility (koi fish; day 20, water 5 degrees Celsius) | Mobility (koi fish; day 24, water 5 degrees Celsius) | Mobility (koi fish; day 28, water 6 degrees Celsius)
1,3 and 1,6 beta glucans | very useful | around 60 ug/kglw/day | – | – | – | – | – | – | – | – | – | – | –
O=C(O)Cc1c[nH]c2ccccc12 [free IAA, indole-3-acetic acid] | Particularly good results | – | 1 | 1 | 1 | 2 | 2 | 3 | 2 | 2 | 3 | 4 | 4
